Key:
Corchorus olitorius [1] = assay: Phytotoxicity in Corchorus olitorius assessed as root length at 0.33 kg a.i/ha treated to soil after 7 weeks (reference value: 16.9 +/- 0.09 mm); format: organism-based; details: in vivo, other, 1176 h
[2] = system: Rottboellia cochinchinensis; assay: Herbicidal activity against Rottboellia cochinchinensis in Abelmoschus esculentus plots assessed as major weed growth at 0.33 kg a.i/ha after 2 weeks; format: functional
Euphorbia heterophylla [3] = assay: Herbicidal activity against Euphorbia heterophylla in Corchorus olitorius plots assessed as major weed growth at 0.33 kg a.i/ha after 2 weeks; format: functional
Synedrella nodiflora [4] = assay: Herbicidal activity against Synedrella nodiflora in Corchorus olitorius plots assessed as weed cover at 0.33 kg a.i/ha after 7 weeks (reference value: 1.7 +/- 0.56 %); format: functional
Euphorbia heterophylla [5] = assay: Herbicidal activity against Euphorbia heterophylla in Abelmoschus esculentus plots assessed as weed recovery at 0.33 kg a.i/ha after 2 weeks (reference value: 60.1 +/- 0.46 %); format: functional
Abelmoschus esculentus [6] = assay: Phytotoxicity in Abelmoschus esculentus assessed as seedling emergence at 0.99 kg a.i/ha treated to soil after 7 weeks (reference value: 95 +/- 0.05 %); format: organism-based; details: in vivo, other, 1176 h
Abelmoschus esculentus [7] = assay: Phytotoxicity in Abelmoschus esculentus assessed as seedling injury at 0.99 kg a.i/ha applied as solution after 7 weeks relative to control; format: organism-based; details: in vivo, other, 1176 h
Corchorus olitorius [8] = assay: Phytotoxicity in Corchorus olitorius assessed as shoot length at 1.32 kg a.i/ha applied as solution after 7 weeks (reference value: 22.9 +/- 0.8 mm); format: organism-based; details: in vivo, other, 1176 h
Chromolaena odorata [9] = assay: Herbicidal activity against Chromolaena odorata in Corchorus olitorius plots assessed as major weed growth at 0.33 kg a.i/ha after 2 weeks; format: functional
Ageratum conyzoides [10] = assay: Herbicidal activity against Ageratum conyzoides in Abelmoschus esculentus plots assessed as weed cover at 1.32 kg a.i/ha after 4 weeks (reference value: 22.6 +/- 0.49 %); format: functional
Talinum fruticosum [11] = assay: Herbicidal activity against Talinum fruticosum in Corchorus olitorius plots assessed as weed recovery at 0.99 kg a.i/ha after 2 weeks (reference value: 78.3 +/- 0.74 %); format: functional
Chromolaena odorata [12] = assay: Herbicidal activity against Chromolaena odorata in Corchorus olitorius plots assessed as weed recovery at 0.33 kg a.i/ha after 2 weeks (reference value: 78.3 +/- 0.74 %); format: functional
Euphorbia heterophylla [13] = assay: Herbicidal activity against Euphorbia heterophylla in Abelmoschus esculentus plots assessed as major weed growth at 1.32 kg a.i/ha after 2 weeks; format: functional
Asteraceae = assay: Herbicidal activity against Aspilia africana in Corchorus olitorius plots assessed as weed recovery at 0.66 kg a.i/ha after 2 weeks (reference value: 78.3 +/- 0.74 %); format: functional
Synedrella nodiflora [14] = assay: Herbicidal activity against Synedrella nodiflora in Abelmoschus esculentus plots assessed as weed cover at 1.32 kg a.i/ha after 2 weeks (reference value: 63.5 +/- 0.29 %); format: functional
Ageratum conyzoides [15] = assay: Herbicidal activity against Ageratum conyzoides in Abelmoschus esculentus plots assessed as weed cover at 0.33 kg a.i/ha after 4 weeks (reference value: 22.6 +/- 0.49 %); format: functional
Calopogonium mucunoides [16] = assay: Herbicidal activity against Calopogonium mucunoides in Abelmoschus esculentus plots assessed as weed cover at 1.32 kg a.i/ha after 4 weeks (reference value: 22.6 +/- 0.49 %); format: functional
Corchorus olitorius [17] = assay: Phytotoxicity in Corchorus olitorius assessed as root length at 0.66 kg a.i/ha applied as solution after 7 weeks (reference value: 14.3 +/- 1.06 mm); format: organism-based; details: in vivo, other, 1176 h
Chromolaena odorata [18] = assay: Herbicidal activity against Chromolaena odorata in Corchorus olitorius plots assessed as weed cover at 0.99 kg a.i/ha after 7 weeks (reference value: 1.7 +/- 0.56 %); format: functional
Ageratum conyzoides [19] = assay: Herbicidal activity against Ageratum conyzoides in Corchorus olitorius plots assessed as weed cover at 1.32 kg a.i/ha after 2 weeks (reference value: 81.7 +/- 0.43 %); format: functional
Euphorbia heterophylla [20] = assay: Herbicidal activity against Euphorbia heterophylla in Corchorus olitorius plots assessed as weed cover at 0.99 kg a.i/ha after 4 weeks (reference value: 20.1+/- 0.57 %); format: functional
Abelmoschus esculentus [21] = assay: Phytotoxicity in Abelmoschus esculentus assessed as shoot length at 0.66 kg a.i/ha applied as solution after 7 weeks (reference value: 28.7 +/- 0.34 mm); format: organism-based; details: in vivo, other, 1176 h
Calopogonium mucunoides [22] = assay: Herbicidal activity against Calopogonium mucunoides in Corchorus olitorius plots assessed as weed cover at 0.99 kg a.i/ha after 2 weeks (reference value: 81.7 +/- 0.43 %); format: functional
Abelmoschus esculentus [23] = assay: Phytotoxicity in Abelmoschus esculentus assessed as root length at 0.33 kg a.i/ha applied as solution after 7 weeks (reference value: 23 +/- 0.34 mm); format: organism-based; details: in vivo, other, 1176 h
Talinum fruticosum [24] = assay: Herbicidal activity against Talinum fruticosum in Abelmoschus esculentus plots assessed as weed recovery at 0.99 kg a.i/ha after 2 weeks (reference value: 60.1 +/- 0.46 %); format: functional
Cyperus rotundus = assay: Herbicidal activity against Cyperus rotundus in Corchorus olitorius plots assessed as minor weed growth at 0.66 kg a.i/ha after 2 weeks; format: functional
Abelmoschus esculentus [25] = assay: Phytotoxicity in Abelmoschus esculentus assessed as shoot length at 0.66 kg a.i/ha treated to soil after 7 weeks (reference value: 8.5 +/- 0.34 mm); format: organism-based; details: in vivo, other, 1176 h
Abelmoschus esculentus [26] = assay: Phytotoxicity in Abelmoschus esculentus assessed as seed germination at 1.32 kg a.i/ha applied as solution after 7 weeks (reference value: 85.7 +/- 0.36 %); format: organism-based; details: in vivo, other, 1176 h
Corchorus olitorius [27] = assay: Phytotoxicity in Corchorus olitorius assessed as seedling emergence at 0.66 kg a.i/ha treated to soil after 7 weeks (reference value: 95 +/- 0.05 %); format: organism-based; details: in vivo, other, 1176 h
Ageratum conyzoides [28] = assay: Herbicidal activity against Ageratum conyzoides in Abelmoschus esculentus plots assessed as weed cover at 1.32 kg a.i/ha after 7 weeks (reference value: 14.7 +/- 0.46 %); format: functional
Ageratum conyzoides [29] = assay: Herbicidal activity against Ageratum conyzoides in Abelmoschus esculentus plots assessed as weed cover at 0.33 kg a.i/ha after 7 weeks (reference value: 14.7 +/- 0.46 %); format: functional
Calopogonium mucunoides [30] = assay: Herbicidal activity against Calopogonium mucunoides in Corchorus olitorius plots assessed as weed cover at 0.33 kg a.i/ha after 2 weeks (reference value: 81.7 +/- 0.43 %); format: functional
Ageratum conyzoides [31] = assay: Herbicidal activity against Ageratum conyzoides in Corchorus olitorius plots assessed as weed cover at 1.32 kg a.i/ha after 4 weeks (reference value: 20.1+/- 0.57 %); format: functional
Abelmoschus esculentus [32] = assay: Phytotoxicity in Abelmoschus esculentus assessed as root length at 0.66 kg a.i/ha treated to soil after 7 weeks (reference value: 2.9 +/- 0.45 mm); format: organism-based; details: in vivo, other, 1176 h
Ageratum conyzoides [33] = assay: Herbicidal activity against Ageratum conyzoides in Corchorus olitorius plots assessed as weed cover at 0.33 kg a.i/ha after 2 weeks (reference value: 81.7 +/- 0.43 %); format: functional
Synedrella nodiflora [34] = assay: Herbicidal activity against Synedrella nodiflora in Corchorus olitorius plots assessed as minor weed growth at 0.66 kg a.i/ha after 2 weeks; format: functional
Abelmoschus esculentus [35] = assay: Phytotoxicity in Abelmoschus esculentus assessed as root length at 0.99 kg a.i/ha treated to soil after 7 weeks (reference value: 2.9 +/- 0.45 mm); format: organism-based; details: in vivo, other, 1176 h

**Q.** For `CCC(CC)Nc1c([N+](=O)[O-])cc(C)c(C)c1[N+](=O)[O-]` [PENDIMETHALIN], which Activity (Corchorus olitorius [1]) is on record?
**A.** Its Activity is 14.2 mm.

**Q.** And the Activity [2]?
**A.** Its Activity is 31 /m2.

**Q.** And the Activity (Euphorbia heterophylla [3])?
**A.** Its Activity is 31 /m2.

**Q.** And the Activity (Synedrella nodiflora [4])?
**A.** The Activity was 100%.

**Q.** And the Activity (Euphorbia heterophylla [5])?
**A.** Its Activity is 39.2%.

**Q.** What about the Activity (Abelmoschus esculentus [6]) of the same molecule?
**A.** The Activity was 85%.

**Q.** What about the Activity (Abelmoschus esculentus [7]) of the same molecule?
**A.** The Activity was 47.9%.

**Q.** What about the Activity (Corchorus olitorius [8]) of the same molecule?
**A.** The Activity was 5.3 mm.

**Q.** What about the Activity (Chromolaena odorata [9]) of the same molecule?
**A.** The Activity was 31 /m2.

**Q.** What about the Activity (Ageratum conyzoides [10]) of the same molecule?
**A.** Its Activity is 36.2%.

**Q.** What about the Activity (Talinum fruticosum [11]) of the same molecule?
**A.** The Activity was 21.7%.

**Q.** And the Activity (Chromolaena odorata [12])?
**A.** The Activity was 31.7%.

**Q.** What about the Activity (Euphorbia heterophylla [13]) of the same molecule?
**A.** Its Activity is 31 /m2.

**Q.** What about the Activity (Asteraceae) of the same molecule?
**A.** Its Activity is 33.3%.

**Q.** And the Activity (Synedrella nodiflora [14])?
**A.** The Activity was 45%.

**Q.** And the Activity (Ageratum conyzoides [15])?
**A.** The Activity was 53.8%.

**Q.** And the Activity (Calopogonium mucunoides [16])?
**A.** The Activity was 36.2%.

**Q.** And the Activity (Corchorus olitorius [17])?
**A.** The Activity was 2.6 mm.

**Q.** What about the Activity (Chromolaena odorata [18]) of the same molecule?
**A.** Its Activity is 95%.

**Q.** What about the Activity (Ageratum conyzoides [19]) of the same molecule?
**A.** Its Activity is 41.7%.

**Q.** And the Activity (Euphorbia heterophylla [20])?
**A.** Its Activity is 48.3%.

**Q.** What about the Activity (Abelmoschus esculentus [21]) of the same molecule?
**A.** The Activity was 14.7 mm.

**Q.** And the Activity (Calopogonium mucunoides [22])?
**A.** The Activity was 51.7%.

**Q.** What about the Activity (Abelmoschus esculentus [23]) of the same molecule?
**A.** Its Activity is 11.7 mm.

**Q.** What about the Activity (Talinum fruticosum [24]) of the same molecule?
**A.** The Activity was 36.2%.

**Q.** And the Activity (Cyperus rotundus)?
**A.** Its Activity is 1 /m2.

**Q.** What about the Activity (Abelmoschus esculentus [25]) of the same molecule?
**A.** The Activity was 5.8 mm.

**Q.** What about the Activity (Abelmoschus esculentus [26]) of the same molecule?
**A.** The Activity was 40.2%.

**Q.** And the Activity (Corchorus olitorius [27])?
**A.** The Activity was 83.3%.

**Q.** What about the Activity (Ageratum conyzoides [28]) of the same molecule?
**A.** The Activity was 82.4%.

**Q.** And the Activity (Ageratum conyzoides [29])?
**A.** The Activity was 90%.

**Q.** And the Activity (Calopogonium mucunoides [30])?
**A.** Its Activity is 63.3%.

**Q.** What about the Activity (Ageratum conyzoides [31]) of the same molecule?
**A.** The Activity was 33.3%.

**Q.** What about the Activity (Abelmoschus esculentus [32]) of the same molecule?
**A.** The Activity was 1.4 mm.

**Q.** What about the Activity (Ageratum conyzoides [33]) of the same molecule?
**A.** The Activity was 63.3%.

**Q.** And the Activity (Synedrella nodiflora [34])?
**A.** Its Activity is 1 /m2.

**Q.** And the Activity (Abelmoschus esculentus [35])?
**A.** Its Activity is 1.1 mm.
